Data taken from patent US12168012B2, “NLRP3 inflammasome inhibitors” (Novartis AG, priority 2018, dated 2024).

What follows are compounds tested on NLRP3 inflammasome (assay: IL-1β secretion assay). Details: Homo sapiens, THP-1, 3 h, PMA-differentiated THP-1 cells, 15 μM nigericin, HTRF.
Type: cell-based
Protocol: 10 μL supernatant was removed, and IL-1p levels were monitored using an HTRF assay (CisBio, #62IL1PEC) according to manufacturers' instructions. Viability and pyroptosis was monitored with the addition of PrestoBlue cell viability reagent (Life Technologies, #A13261) directly to the cell culture plate.
IC50 values were calculated from the plot of percentage of inhibition versus the inhibitor concentration by a logistics fit according to: y=A2+(A1−A2)/(1+(x/IC50)^p) where y is the %-inhibition at the inhibitor concentration, x. A1 is the lowest inhibition value, i.e. 0%, and A2 the maximum inhibition value, i.e. 100%. The exponent, p, is the Hill coefficient. The curve fitting was conducted with an internally developed software suite.
NLRP3-dependent IL-1β secretion was stimulated in PMA-differentiated THP-1 cells by the addition of nigericin, and cytokines were measured in the […] after 3 hours. As discussed above, activation of the NLRP3 inflammasome requires both an NF-kB-dependent priming step and the addition of a NLRP3 activator.

Structure (SMILES)	IC50 [nM]
CC(C)c1nn(CC(=O)Nc2nccs2)c(=O)c2cc3sc(Cl)cc3n12 [Ex 11, 2-(2-Chloro-5-isopropyl-8-oxothieno[2′,3′:4,5]pyrrolo[1,2-d][1,2,4]triazin-7(8H)-yl)-N-(thiazol-2-yl)acetamide]	62.5
CC(C)c1nn(CC(=O)Nc2cncs2)c(=O)c2cc3sc(Cl)cc3n12 [Ex 12, 2-(2-Chloro-5-isopropyl-8-oxothieno[2′,3′:4,5]pyrrolo[1,2-d][1,2,4]triazin-7(8H)-yl)-N-(thiazol-5-yl)acetamide]	23.7
CC(C)c1nn(CC(=O)Nc2cccnc2Cl)c(=O)c2cc3sc(Cl)cc3n12 [Ex 13, 2-(2-Chloro-5-isopropyl-8-oxothieno[2′,3′:4,5]pyrrolo[1,2-d][1,2,4]triazin-7(8H)-yl)-N-(2-chloropyridin-3-yl)acetamide]	94
CC(C)c1nn(CC(=O)Nc2ccc(F)nc2)c(=O)c2cc3sc(Cl)cc3n12 [Ex 14, 2-(2-Chloro-5-isopropyl-8-oxothieno[2′,3′:4,5]pyrrolo[1,2-d][1,2,4]triazin-7(8H)-yl)-N-(6-fluoropyridin-3-yl)acetamide]	90.6
CC(C)c1nn(CC(=O)Nc2ncncc2F)c(=O)c2cc3sc(Cl)cc3n12 [Ex 15, 2-(2-Chloro-5-isopropyl-8-oxothieno[2′,3′:4,5]pyrrolo[1,2-d][1,2,4]triazin-7(8H)-yl)-N-(5-fluoropyrimidin-4-yl)acetamide]	5.4
CC(C)c1nn(CC(=O)Nc2ncncc2Cl)c(=O)c2cc3sc(Cl)cc3n12 [Ex 16, 2-(2-Chloro-5-isopropyl-8-oxothieno[2′,3′:4,5]pyrrolo[1,2-d][1,2,4]triazin-7(8H)-yl)-N-(5-chloropyrimidin-4-yl)acetamide]	57.3
CC(C)c1nn(CC(=O)N[C@@H]2CC[C@@H](N)C2)c(=O)c2cc3sc(Cl)cc3n12 [Ex 22, N-((1R,3R)-3-Aminocyclopentyl)-2-(2-chloro-5-isopropyl-8-oxothieno[2′,3′:4,5]pyrrolo[1,2-d][1,2,4]triazin-7(8H)-yl)acetamide]	408
CC(C)c1nn(CC(=O)N[C@]2(C)C[C@@H](O)C2)c(=O)c2cc3sc(Cl)cc3n12 [Ex 23, 2-(2-Chloro-5-isopropyl-8-oxothieno[2′,3′:4,5]pyrrolo[1,2-d][1,2,4]triazin-7(8H)-yl)-N-((1r,3r)-3-hydroxy-1-methylcyclobutyl)acetamide]	452
CC(C)c1nn(CC(=O)Nc2ccnn2C)c(=O)c2cc3sc(Cl)cc3n12 [Ex 57, 2-(2-Chloro-5-isopropyl-8-oxothieno[2′,3′:4,5]pyrrolo[1,2-d][1,2,4]triazin-7(8H)-yl)-N-(1-methyl-1H-pyrazol-5-yl)acetamide]	61.5
CC(C)(O)c1nn(CC(=O)Nc2ccc3cn[nH]c3c2)c(=O)c2cc3sc(Cl)cc3n12 [Ex 65, 2-(2-Chloro-5-(2-hydroxypropan-2-yl)-8-oxothieno[2′,3′:4,5]pyrrolo[1,2-d][1,2,4]triazin-7(8H)-yl)-N-(1H-indazol-6-yl)acetamide]	6.2
Cc1n[nH]c2cc(NC(=O)Cn3nc(C(C)(C)O)n4c(cc5sc(Cl)cc54)c3=O)ccc12 [Ex 66, 2-(2-Chloro-5-(2-hydroxypropan-2-yl)-8-oxothieno[2′,3′:4,5]pyrrolo[1,2-d][1,2,4]triazin-7(8H)-yl)-N-(3-methyl-1H-indazol-6-yl)acetamide]	7.8
CC(C)(O)c1nn(CC(=O)Nc2ccc3cc[nH]c3c2)c(=O)c2cc3sc(Cl)cc3n12 [Ex 67, 2-(2-Chloro-5-(2-hydroxypropan-2-yl)-8-oxothieno[2′,3′:4,5]pyrrolo[1,2-d][1,2,4]triazin-7(8H)-yl)-N-(1H-indol-6-yl)acetamide]	212
CC(C)c1nn(CC(=O)N[C@H]2C[C@](C)(O)C2)c(=O)c2cc3sc(Cl)cc3n12 [Ex 71, 2-(2-Chloro-5-isopropyl-8-oxothieno[2′,3′:4,5]pyrrolo[1,2-d][1,2,4]triazin-7(8H)-yl)-N-((1r,3r)-3-hydroxy-3-methylcyclobutyl)acetamide]	15.9
CC(C)c1nn(CC(=O)NC2CC3(CC(O)C3)C2)c(=O)c2cc3sc(Cl)cc3n12 (stereo not shown) [Ex 73, 2-(2-Chloro-5-isopropyl-8-oxothieno[2′,3′:4,5]pyrrolo[1,2-d][1,2,4]triazin-7(8H)-yl)-N-(6-hydroxyspiro[3.3]heptan-2-yl)acetamide]	14.5
CC(C)c1nn(CC(=O)N[C@H]2C[C@](O)(C(F)(F)F)C2)c(=O)c2cc3sc(Cl)cc3n12 [Ex 74, 2-(2-Chloro-5-isopropyl-8-oxothieno[2′,3′:4,5]pyrrolo[1,2-d][1,2,4]triazin-7(8H)-yl)-N-((1s,3s)-3-hydroxy-3-(trifluoromethyl)cyclobutyl)acetamide]	4.4
CC(C)c1nn(CC(=O)N[C@@H]2CCCN(CCOC(F)(F)F)C2)c(=O)c2cc3sc(Cl)cc3n12 [Ex 78, (R)-2-(2-Chloro-5-isopropyl-8-oxothieno[2′,3′:4,5]pyrrolo[1,2-d][1,2,4]triazin-7(8H)-yl)-N-(1-(2-(trifluoromethoxy)ethyl)piperidin-3-yl)acetamide]	71.4

Structure (SMILES)	IC50 [nM]
CC(C)(O)CCNC(=O)Cn1nc(C(C)(C)O)n2c(cc3sc(Cl)cc32)c1=O [Ex 80]	60.7
CC(C)c1nn(CC(=O)NCCC(C)(C)O)c(=O)c2cc3sc(F)cc3n12 [Ex 84, 2-(2-Fluoro-5-isopropyl-8-oxothieno[2′,3′:4,5]pyrrolo[1,2-d][1,2,4]triazin-7(8H)-yl)-N-(3-hydroxy-3-methylbutyl)acetamide]	12.9
CC(C)c1nn(CC(=O)NC[C@@H](C)O)c(=O)c2cc3sc(F)cc3n12 [Ex 85, (R)-2-(2-Fluoro-5-isopropyl-8-oxothieno[2′,3′:4,5]pyrrolo[1,2-d][1,2,4]triazin-7(8H)-yl)-N-(2-hydroxypropyl)acetamide]	130
CC(C)c1nn(CC(=O)N[C@H]2C[C@](C)(O)C2)c(=O)c2cc3sc(F)cc3n12 [Ex 86, 2-(2-Fluoro-5-isopropyl-8-oxothieno[2′,3′:4,5]pyrrolo[1,2-d][1,2,4]triazin-7(8H)-yl)-N-((1r,3r)-3-hydroxy-3-methylcyclobutyl)acetamide]	41.2
CC(C)c1nn(CC(=O)N[C@H]2C[C@@](C)(O)C2)c(=O)c2cc3sc(F)cc3n12 [Ex 87, 2-(2-Fluoro-5-isopropyl-8-oxothieno[2′,3′:4,5]pyrrolo[1,2-d][1,2,4]triazin-7(8H)-yl)-N-((1s,3s)-3-hydroxy-3-methylcyclobutyl)acetamide]	1
Cc1nc2c(cc3c(=O)n(CC(=O)N[C@@H]4CCCN(C)C4)nc(C(C)C)n32)s1 [Ex 92, (R)-2-(5-Isopropyl-2-methyl-8-oxothiazolo[5′,4′:4,5]pyrrolo[1,2-d][1,2,4]triazin-7(8H)-yl)-N-(1-methylpiperidin-3-yl)acetamide]	65.2
CC(C)c1nn(CC(=O)N[C@H]2C[C@@](C)(O)C2)c(=O)c2cc3scnc3n12 [Ex 93, N-((1s,3s)-3-Hydroxy-3-methylcyclobutyl)-2-(5-isopropyl-8-oxothiazolo[5′,4′:4,5]pyrrolo[1,2-d][1,2,4]triazin-7(8H)-yl)acetamide]	0.8
CC(C)c1nn(CC(=O)NCCC(C)(C)O)c(=O)c2cc3scnc3n12 [Ex 94, N-(3-Hydroxy-3-methylbutyl)-2-(5-isopropyl-8-oxothiazolo[5′,4′:4,5]pyrrolo[1,2-d][1,2,4]triazin-7(8H)-yl)acetamide]	64.9
CC(C)c1nn(CC(=O)NC[C@@H](C)O)c(=O)c2cc3scnc3n12 [Ex 95, (R)-N-(2-Hydroxypropyl)-2-(5-isopropyl-8-oxothiazolo[5′,4′:4,5]pyrrolo[1,2-d][1,2,4]triazin-7(8H)-yl)acetamide]	246
CC(C)c1nn(CC(=O)N[C@@H]2CCC(=O)N(C)C2)c(=O)c2cc3scnc3n12 [Ex 97, (R)-2-(5-Isopropyl-8-oxothiazolo[5′,4′:4,5]pyrrolo[1,2-d][1,2,4]triazin-7(8H)-yl)-N-(1-methyl-6-oxopiperidin-3-yl)acetamide]	18.3
CC(C)c1nn(CC(=O)NC2CCCC2)c(=O)c2cc3scnc3n12 [Ex 98, N-Cyclopentyl-2-(5-isopropyl-8-oxothiazolo[5′,4′:4,5]pyrrolo[1,2-d][1,2,4]triazin-7(8H)-yl)acetamide]	271
CC(C)c1nn(CC(=O)NC2CCCC2)c(=O)c2cc3sc(Cl)cc3n12 [Ex 101, 2-(2-chloro-5-Isopropyl-8-oxothieno[2′,3′:4,5]pyrrolo[1,2-d][1,2,4]triazin-7(8H)-yl)-N-cyclopentylacetamide]	381
CC(C)c1nn(CC(=O)N[C@H]2CCNC2)c(=O)c2cc3sc(Cl)cc3n12 [Ex 102, (S)-2-(2-Chloro-5-isopropyl-8-oxothieno[2′,3′:4,5]pyrrolo[1,2-d][1,2,4]triazin-7(8H)-yl)-N-(pyrrolidin-3-yl)acetamide]	886
CC(C)c1nn(CC(=O)N[C@@H]2CCN(C)C2)c(=O)c2cc3sc(Cl)cc3n12 [Ex 104, (R)-2-(2-Chloro-5-isopropyl-8-oxothieno[2′,3′:4,5]pyrrolo[1,2-d][1,2,4]triazin-7(8H)-yl)-N-(1-methylpyrrolidin-3-yl)acetamide]	254
CC(C)c1nn(CC(=O)N[C@H]2CCN(C)C2)c(=O)c2cc3sc(Cl)cc3n12 [Ex 105, (S)-2-(2-Chloro-5-isopropyl-8-oxothieno[2′,3′:4,5]pyrrolo[1,2-d][1,2,4]triazin-7(8H)-yl)-N-(1-methylpyrrolidin-3-yl)acetamide]	838
